# Measurements as given in ChEMBL document CHEMBL1671652, “Efficacy of piperacillin combined with the Penem beta-lactamase inhibitor BLI-489 in murine models of systemic infection” (2009).
# Experiments:
# Escherichia coli [1] = assay: Antimicrobial activity against ACT-1 beta-lactamase producing Escherichia coli GC 2814 infected in CD-1 mouse treated 30 and 150 mins postinfection in presence of beta-lactamase inhibitor Tazobactam; format: functional
# Staphylococcus aureus [2] = assay: Antimicrobial activity against penicillinase producing Staphylococcus aureus GC 6468 infected in CD-1 mouse treated 30 and 150 mins postinfection in presence of beta-lactamase inhibitor Tazobactam; format: functional
# Escherichia coli [3] = assay: Antimicrobial activity against TEM-1 beta-lactamase producing Escherichia coli GC 6265 infected in CD-1 mouse treated 30 mins postinfection; format: functional; conditions: GC 6265, 0.5 h
# Klebsiella pneumoniae [4] = assay: Antimicrobial activity against SHV-11beta-lactamase producing Klebsiella pneumoniae GAR 7693 infected in CD-1 mouse treated 30 and 150 mins postinfection in presence of 8:1 ratio of compound to beta-lactamase inhibitor BLI-489; format: functional
# Klebsiella pneumoniae [5] = assay: Antimicrobial activity against SHV-1and SHV-5 beta-lactamase producing Klebsiella pneumoniae GAR 7978 by broth microdilution method in presence of beta-lactamase inhibitor Tazobactam; format: functional
# Enterobacter cloacae [6] = assay: Antimicrobial activity against AmpC beta-lactamase producing Enterobacter cloacae GC 4142 infected in CD-1 mouse treated 30 and 150 min postinfection in presence of 6:1 ratio of compound to beta-lactamase inhibitor BLI-489; format: functional
# Enterobacter cloacae [7] = assay: Antimicrobial activity against AmpC beta-lactamase producing Enterobacter cloacae GC 4142 infected in CD-1 mouse treated 30 and 150 min postinfection in presence of 2:1 ratio of compound to beta-lactamase inhibitor BLI-489; format: functional
# Klebsiella pneumoniae [8] = assay: Antimicrobial activity against SHV-11 beta-lactamase producing Klebsiella pneumoniae GAR 7693 by broth microdilution method in presence of 8:1 ratio of compound to beta-lactamase inhibitor BLI-489; format: functional
# Escherichia coli [9] = assay: Antimicrobial activity against OXA-1 beta-lactamase producing Escherichia coli GAR 5946 infected in CD-1 mouse treated 30 and 150 mins postinfection in presence of beta-lactamase inhibitor Tazobactam; format: functional
# Escherichia coli [10] = assay: Antimicrobial activity against TEM-1 beta-lactamase producing Escherichia coli GC 6265 infected in CD-1 mouse treated 30 mins postinfection in presence of 8:1 ratio of compound to beta-lactamase inhibitor BLI-489; format: functional; conditions: GC 6265, 0.5 h
# Klebsiella pneumoniae [11] = assay: Antimicrobial activity against SHV-11 beta-lactamase producing Klebsiella pneumoniae GAR 7693 by broth microdilution method in presence of beta-lactamase inhibitor Tazobactam; format: functional
# Escherichia coli [12] = assay: Antimicrobial activity against TEM-10 beta-lactamase producing Escherichia coli GC 2022 infected in CD-1 mouse treated 30 mins postinfection; format: functional; conditions: GC 2022, 0.5 h
# Escherichia coli [13] = assay: Antimicrobial activity against TEM-1 beta-lactamase producing Escherichia coli GC 6265 infected in CD-1 mouse treated 30 mins postinfection in presence of 6:1 ratio of compound to beta-lactamase inhibitor BLI-489; format: functional; conditions: GC 6265, 0.5 h
# Enterobacter cloacae [14] = assay: Antimicrobial activity against AmpC beta-lactamase producing Enterobacter cloacae GC 4142 by broth microdilution method in presence of 8:1 ratio of compound to beta-lactamase inhibitor BLI-489; format: functional
# Escherichia coli [15] = assay: Antimicrobial activity against TEM-1 beta-lactamase producing Escherichia coli GC 6265 infected in CD-1 mouse treated 30 mins postinfection in presence of 12:1 ratio of compound to beta-lactamase inhibitor BLI-489; format: functional; conditions: GC 6265, 0.5 h
# Enterobacter cloacae [16] = assay: Antimicrobial activity against AmpC beta-lactamase producing Enterobacter cloacae GC 4142 infected in CD-1 mouse treated 30 and 150 min postinfection in presence of 12:1 ratio of compound to beta-lactamase inhibitor BLI-489; format: functional
# Escherichia coli [17] = assay: Antimicrobial activity against OXA-1 beta-lactamase producing Escherichia coli GAR 5946 by broth microdilution method in presence of beta-lactamase inhibitor Tazobactam; format: functional
# Pseudomonas aeruginosa [18] = assay: Antimicrobial activity against AmpC beta-lactamase producing Pseudomonas aeruginosa GC 1764 infected in CD-1 mouse treated 30 and 150 mins postinfection; format: functional
# Escherichia coli [19] = assay: Antimicrobial activity against TEM-1 beta-lactamase producing Escherichia coli GC 6265 infected in CD-1 mouse treated 30 mins postinfection in presence of 14:1 ratio of compound to beta-lactamase inhibitor BLI-489; format: functional; conditions: GC 6265, 0.5 h
# Salmonella typhimurium [20] = assay: Antimicrobial activity against CTX-M-5 beta-lactamase producing Salmonella enterica serovar Typhimurium GC 4195 by broth microdilution method in presence of 8:1 ratio of compound to beta-lactamase inhibitor BLI-489; format: functional, Salmonella enterica subsp. enterica serovar Typhimurium
# Staphylococcus aureus [21] = assay: Antimicrobial activity against penicillinase producing Staphylococcus aureus GC 6468 by broth microdilution method; format: functional
# Enterobacter cloacae [22] = assay: Antimicrobial activity against AmpC beta-lactamase producing Enterobacter cloacae GC 4142 infected in CD-1 mouse treated 30 and 150 min postinfection in presence of 14:1 ratio of compound to beta-lactamase inhibitor BLI-489; format: functional
# Escherichia coli [23] = assay: Antimicrobial activity against TEM-1 beta-lactamase producing Escherichia coli GC 6265 infected in CD-1 mouse treated 30 mins postinfection in presence of beta-lactamase inhibitor Tazobactam; format: functional; conditions: GC 6265, 0.5 h
# Klebsiella pneumoniae [24] = assay: Antimicrobial activity against SHV-1and SHV-5 beta-lactamase producing Klebsiella pneumoniae GAR 7978 by broth microdilution method in presence of 8:1 ratio of compound to beta-lactamase inhibitor BLI-489; format: functional
# Escherichia coli [25] = assay: Antimicrobial activity against ACT-1 beta-lactamase producing Escherichia coli GC 2814 by broth microdilution method in presence of 8:1 ratio of compound to beta-lactamase inhibitor BLI-489; format: functional
# Escherichia coli [26] = assay: Antimicrobial activity against TEM-1 beta-lactamase producing Escherichia coli GC 6265 infected in CD-1 mouse treated 30 mins postinfection in presence of 4:1 ratio of compound to beta-lactamase inhibitor BLI-489; format: functional; conditions: GC 6265, 0.5 h
# Enterobacter cloacae [27] = assay: Antimicrobial activity against AmpC beta-lactamase producing Enterobacter cloacae GC 4142 by broth microdilution method in presence of beta-lactamase inhibitor Tazobactam; format: functional
# Enterobacter cloacae [28] = assay: Antimicrobial activity against AmpC beta-lactamase producing Enterobacter cloacae GC 4142 infected in CD-1 mouse treated 30 and 150 min postinfection in presence of 4:1 ratio of compound to beta-lactamase inhibitor BLI-489; format: functional
# Escherichia coli [29] = assay: Antimicrobial activity against TEM-1 beta-lactamase producing Escherichia coli GC 6265 by broth microdilution method in presence of beta-lactamase inhibitor Tazobactam; format: functional
# Staphylococcus aureus [30] = assay: Antimicrobial activity against penicillinase producing Staphylococcus aureus GC 6468 infected in CD-1 mouse treated 30 and 150 mins postinfection in presence of 8:1 ratio of compound to beta-lactamase inhibitor BLI-489; format: functional
# Escherichia coli [31] = assay: Antimicrobial activity against ACT-1 beta-lactamase producing Escherichia coli GC 2814 by broth microdilution method; format: functional
# Klebsiella pneumoniae [32] = assay: Antimicrobial activity against SHV-1and SHV-5 beta-lactamase producing Klebsiella pneumoniae GAR 7978 by broth microdilution method; format: functional
# Salmonella typhimurium [33] = assay: Antimicrobial activity against CTX-M-5 beta-lactamase producing Salmonella enterica serovar Typhimurium GC 4195 infected in CD-1 mouse treated 30 and 150 mins postinfection in presence of 8:1 ratio of compound to beta-lactamase inhibitor BLI-489; format: functional, Salmonella enterica subsp. enterica serovar Typhimurium
# Pseudomonas aeruginosa [34] = assay: Antimicrobial activity against AmpC beta-lactamase producing Pseudomonas aeruginosa GC 1764 by broth microdilution method; format: functional
# Salmonella typhimurium [35] = assay: Antimicrobial activity against CTX-M-5 beta-lactamase producing Salmonella enterica serovar Typhimurium GC 4195 infected in CD-1 mouse treated 30 and 150 mins postinfection in presence of beta-lactamase inhibitor Tazobactam; format: functional, Salmonella enterica subsp. enterica serovar Typhimurium
# Enterobacter cloacae [36] = assay: Antimicrobial activity against AmpC beta-lactamase producing Enterobacter cloacae GC 4142 by broth microdilution method; format: functional
smiles,measurement,setting,value
CCN1CCN(C(=O)N[C@@H](C(=O)N[C@@H]2C(=O)N3[C@@H]2SC(C)(C)[C@@H]3C(=O)O)c2ccccc2)C(=O)C1=O [PIPERACILLIN],ED50,Escherichia coli [1],45 mg/kg
same,ED50,Staphylococcus aureus [2],16 mg/kg
same,ED50,Escherichia coli [3],176 mg/kg
same,ED50,Klebsiella pneumoniae [4],23 mg/kg
same,MIC,Klebsiella pneumoniae [5],> 64 µg/mL
same,ED50,Enterobacter cloacae [6],30 mg/kg
same,ED50,Enterobacter cloacae [7],31 mg/kg
same,MIC,Klebsiella pneumoniae [8],> 64 µg/mL
same,ED50,Escherichia coli [9],270 mg/kg
same,ED50,Escherichia coli [10],12 mg/kg
same,MIC,Klebsiella pneumoniae [11],> 64 µg/mL
same,ED50,Escherichia coli [12],301 mg/kg
same,ED50,Escherichia coli [13],12 mg/kg
same,MIC,Enterobacter cloacae [14],> 64 µg/mL
same,ED50,Escherichia coli [15],11 mg/kg
same,ED50,Enterobacter cloacae [16],60 mg/kg
same,MIC,Escherichia coli [17],0.25 µg/mL
same,ED50,Pseudomonas aeruginosa [18],980 mg/kg
same,ED50,Escherichia coli [19],16 mg/kg
same,MIC,Salmonella typhimurium [20],> 64 µg/mL
same,MIC,Staphylococcus aureus [21],> 64 µg/mL
same,ED50,Enterobacter cloacae [22],69 mg/kg
same,ED50,Escherichia coli [23],11 mg/kg
same,MIC,Klebsiella pneumoniae [24],8 µg/mL
same,MIC,Escherichia coli [25],> 64 µg/mL
same,ED50,Escherichia coli [26],12 mg/kg
same,MIC,Enterobacter cloacae [27],4 µg/mL
same,ED50,Enterobacter cloacae [28],30 mg/kg
same,MIC,Escherichia coli [29],128 µg/mL
same,ED50,Staphylococcus aureus [30],12 mg/kg
same,MIC,Escherichia coli [31],2 µg/mL
same,MIC,Klebsiella pneumoniae [32],> 64 µg/mL
same,ED50,Salmonella typhimurium [33],45 mg/kg
same,MIC,Pseudomonas aeruginosa [34],> 64 µg/mL
same,ED50,Salmonella typhimurium [35],152 mg/kg
same,MIC,Enterobacter cloacae [36],8 µg/mL
